Source: article PMC6943619, “Synthesis and Pharmacological Evaluation of Hybrids Targeting Opioid and Neurokinin Receptors” (Molecules, 2019)
Where two headings read alike, the source gives them in different places. Where a SMILES comes first, the peptide text is derived from it. Bridges are numbered along the chain shown (N, C = ends). [ ]: non-standard residue; d: D form. Nle = CCCC[C@H](N)C(=O)O

Columns and labels:
human NK1 = human NK1 (Homo sapiens, UniProt P25103); assay: Calcium mobilization functional assay, agonist mode, CHONK1 cells; format: cell-based; design: expressed in transfected cells; host or cells: CHO cells (gift of Prof. T. Costa, ISS, Rome); conditions: for NK1 α ± SEM: efficacy (intrinsic activity), Emax relative to SP
mice [1] = assay: Tolerance development, writhing test after repeated injections; format: in vivo; conditions: 5 mg/kg i.p. once daily for seven days, writhing test on Day 7, n = 10
Description: To examine whether mice developed tolerance to hybrids 2 and 4, these analogs and analog 1 for comparison were injected once daily (5 mg/kg) for seven consecutive days. After repeated administration, the antinociceptive effect was determined on Day 7, performing the writhing test as above.
Figure 4 A comparison of the antinociceptive effect of single (Day 1) and repeated (Day 7) i.p. injections of opioid analog 1 and hybrids 2 and 4 at the dose of 5 mg/kg in the writhing test in mice. The data represent mean ± SEM, n = 10. Statistical significance was assessed using one-way ANOVA and a post hoc multiple comparison by the Student–Newman–Keuls test. *** p < 0.001, as compared to control.
Peptides were administered at the highest dose (5 mg/kg) used before in the writhing test. In the experiment, four new groups of animals (10 mice per group, housed in one cage) underwent repeated injections (i.p.) of saline or the tested compounds (Days 1–7). On Day 7, following saline or peptide administration, the writhing test was performed, as described above. The antinociceptive activity of a compound was compared to the activity obtained after a single injection of this compound in the corresponding dose (5 mg/kg).

human KOR = target: T1, human KOR (Homo sapiens, UniProt P41145); assay: Calcium mobilization functional assay, agonist mode; format: cell-based; conditions: for KOR α ± SEM: efficacy (intrinsic activity), Emax relative to dynorphin A, mean ± SEM
T1 construct: expressed in transfected cells; host or cells: CHO cells (University of Ferrara), co-expressing Gαqi5

[2] = target: T2, human opioid receptor KOR (Homo sapiens, UniProt P41145); assay: Radioligand binding assay, displacement of [3H]U-69593; conditions: displacement of [3H]U-69593 from membranes of CHO cells transfected with human KOR, 50 mM Tris/HCl pH 7.4, 0.5% BSA, peptidase inhibitors, 2 h at 25 °C, mean ± SEM, n ≥ 3
T2 construct: purchased PerkinElmer (Krakow, Poland); host or cells: CHO cell membranes
Description: A radioligand binding assay was performed to determine the opioid receptor (OR) binding affinities of the novel analogs using commercially available membranes of Chinese hamster ovary cells (CHO) transfected with human recombinant ORs. [^3H]DAMGO, [^3H]deltorphin-2, and [^3H]U-69593 were used as the radioligands for MOR, DOR, and KOR, respectively. Tyr-[D-Lys-Phe-Phe-Asp]NH2 (1) was used as a reference opioid compound. […] None of them acquired significant DOR affinity.
(§1) To determine the affinity of peptide analogs to respective receptors, competition binding experiments were performed, as described in detail elsewhere.
Commercial membranes of CHO cells stably expressing either human ORs or NK1 receptor were used. [^3H]DAMGO, [^3H]deltorphin-2, and [^3H]U-69593 were employed as the competing radioligands for MOR, DOR, and KOR, respectively, while [^3H][Sar^9, Met(O2)^11]SP was utilized for the NK1 receptor. Membranes were incubated in a 0.5 mL volume of 50 mM Tris/HCl (pH = 7.4), 0.5% bovine serum albumin (BSA), with a number of peptidase inhibitors (bacitracin, bestatin, captopril) and various concentrations of radioligands for 2 h at 25 °C. Nonspecific binding was assessed in the presence of […] naloxone for ORs or SP for NK1 receptor.
The pharmacological terminology adopted in this paper is consistent with International Union of Basic and Clinical Pharmacology (IUPHAR) recommendations. Concentration–response curves were analyzed by nonlinear regression using Graph Pad Prism 6.0 (La Jolla, CA, USA). […]. […] Concentration–response curves were fitted with the four-parameter logistic nonlinear regression model (1) Effect=baseline+Emax−baseline/1+10^logEC50−X·n where X is the agonist concentration and n is the Hill coefficient. Ligand efficacy was expressed as intrinsic activity (α) calculated as a ratio of the peptide Emax to the Emax of the standard agonist (Supplementary Materials, Figure S7). […]. All statistical analyses were performed using Graph Pad Prism 6.0 (La Jolla, CA, USA). Differences between groups were analyzed with one-way ANOVA and a post hoc multiple comparison by the Student–Newman–Keuls test. A probability level of 0.05 or smaller was used to indicate statistical significance.

[3] = target: T3, human opioid receptor DOR (Homo sapiens, UniProt P41143); assay: Radioligand binding assay, displacement of [3H]deltorphin-2; conditions: displacement of [3H]deltorphin-2 from membranes of CHO cells transfected with human DOR, 50 mM Tris/HCl pH 7.4, 0.5% BSA, peptidase inhibitors, 2 h at 25 °C, mean ± SEM, n ≥ 3
T3 construct: purchased PerkinElmer (Krakow, Poland); host or cells: CHO cell membranes
Description: A radioligand binding assay was performed to determine the opioid receptor (OR) binding affinities of the novel analogs using commercially available membranes of Chinese hamster ovary cells (CHO) transfected with human recombinant ORs. […] Tyr-[D-Lys-Phe-Phe-Asp]NH2 (1) was used as a reference opioid compound.
as §1
Commercial membranes of CHO cells stably expressing either human ORs or NK1 receptor were used. […] Membranes were incubated in a 0.5 mL volume of 50 mM Tris/HCl (pH = 7.4), 0.5% bovine serum albumin (BSA), with a number of peptidase inhibitors (bacitracin, bestatin, captopril) and various concentrations of radioligands for 2 h at 25 °C.
The pharmacological terminology adopted in this paper is consistent with International Union of Basic and Clinical Pharmacology (IUPHAR) recommendations. Concentration–response curves were analyzed by nonlinear regression using Graph Pad Prism 6.0 (La Jolla, CA, USA). […] Concentration–response curves were fitted with the four-parameter logistic nonlinear regression model (1) Effect=baseline+Emax−baseline/1+10^logEC50−X·n where X is the agonist concentration and n is the Hill coefficient. Ligand efficacy was expressed as intrinsic activity (α) calculated as a ratio of the peptide Emax to the Emax of the standard agonist (Supplementary Materials, Figure S7). […] All statistical analyses were performed using Graph Pad Prism 6.0 (La Jolla, CA, USA). Differences between groups were analyzed with one-way ANOVA and a post hoc multiple comparison by the Student–Newman–Keuls test. A probability level of 0.05 or smaller was used to indicate statistical significance.

mice [4] = assay: Writhing test (acetic acid, acute pain model); format: in vivo; conditions: 5 mg/kg i.p., single injection 15 min before i.p. acetic acid (0.5%, 10 mL/kg), writhes counted 15 min, saline baseline about 35, average, n = 10
Description: The writhing test was used as an acute pain model. This test involves intraperitoneal (i.p.) injection of acetic acid which results in abdominal constriction, causing the mice to writhe. Peptides or saline (control) were administered i.p. over a concentration range of 0.3 to 5 mg/kg at 15 min before the injection of acetic acid (0.5%, 10 mL/kg). The baseline number of writhes in the saline-treated animals was about 35.
Peptides or vehicle were administered 15 min before the i.p. injection of acetic acid (0.5%, 10 mL/kg). The number of writhes was determined 5 min after acetic acid injection over a period of 15 min. The data represent mean ± SEM, n = 10.
Male Balb/c mice (Animal Facility of Nofer Institute of Occupational Medicine, Lodz, Poland) weighing 22–25 g were used in the study. The animals were housed under standard conditions (22 ± 1 °C, 12 h light/dark cycle) with food and water ad libitum for five days before the experiments.
Antinociceptive activity was assessed by the writhing test. Mice were divided into groups of 10 animals each. A single i.p. injection of saline or a tested compound (at doses 0.3, 1, 3, or 5 mg/kg) was followed (after 15 min) by the i.p. administration of acetic acid (0.65% in 0.9% NaCl, 10 mL/kg) [53]. After 5 min recovery, specific spontaneous behaviors characterized by elongation of the body (“writhes”) were counted for 15 min.

[5] = CHO cells co-expressing human KOR and Gαqi5, n = 5

Sequence of human NK1 (P25103 whole entry): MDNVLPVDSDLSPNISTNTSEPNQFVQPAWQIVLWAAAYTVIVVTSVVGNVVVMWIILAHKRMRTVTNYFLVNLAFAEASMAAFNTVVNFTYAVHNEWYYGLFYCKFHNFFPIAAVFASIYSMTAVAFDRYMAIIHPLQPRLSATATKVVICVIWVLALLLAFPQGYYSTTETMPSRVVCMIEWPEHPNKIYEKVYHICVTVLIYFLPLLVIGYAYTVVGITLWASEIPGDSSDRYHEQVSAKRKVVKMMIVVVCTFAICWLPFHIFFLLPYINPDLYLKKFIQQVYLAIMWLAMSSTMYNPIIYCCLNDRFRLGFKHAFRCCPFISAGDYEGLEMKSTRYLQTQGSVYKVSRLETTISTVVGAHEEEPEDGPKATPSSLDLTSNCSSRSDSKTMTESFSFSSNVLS
T1 sequence (P41145 whole entry): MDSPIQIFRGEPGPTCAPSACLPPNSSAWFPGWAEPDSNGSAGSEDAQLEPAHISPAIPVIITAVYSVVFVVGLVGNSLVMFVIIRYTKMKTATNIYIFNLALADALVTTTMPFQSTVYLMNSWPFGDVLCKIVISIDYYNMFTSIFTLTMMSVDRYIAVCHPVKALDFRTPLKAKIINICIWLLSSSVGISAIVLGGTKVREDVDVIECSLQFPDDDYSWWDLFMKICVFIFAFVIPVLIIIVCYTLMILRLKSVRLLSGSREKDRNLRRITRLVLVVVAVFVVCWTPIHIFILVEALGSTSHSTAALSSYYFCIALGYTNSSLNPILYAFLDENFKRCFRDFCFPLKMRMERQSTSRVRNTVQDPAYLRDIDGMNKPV
T2 sequence (P41145 whole entry): as above
T3 sequence (P41143 whole entry): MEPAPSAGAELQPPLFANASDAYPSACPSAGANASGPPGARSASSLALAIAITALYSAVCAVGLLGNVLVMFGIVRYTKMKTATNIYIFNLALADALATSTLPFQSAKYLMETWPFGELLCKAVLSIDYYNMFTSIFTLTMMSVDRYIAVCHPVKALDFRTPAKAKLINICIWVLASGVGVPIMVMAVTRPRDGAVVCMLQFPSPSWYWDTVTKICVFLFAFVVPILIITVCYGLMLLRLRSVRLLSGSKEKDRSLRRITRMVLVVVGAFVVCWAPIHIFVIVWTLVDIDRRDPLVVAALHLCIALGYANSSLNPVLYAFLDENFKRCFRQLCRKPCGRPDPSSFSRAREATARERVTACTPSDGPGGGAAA

Row | SMILES | NK1 pEC50 (CL95%) (human NK1; CHO cells expressing human NK1 (CHONK1), Fluo-4 AM calcium signal, N = 5) | NK1 α ± SEM (human NK1; CHONK1 cells, N = 5) | tolerance development (analgesic activity on Day 7 versus Day 1) (mice [1]) | EC50 (human KOR; CHO cells co-expressing human KOR and Gαqi5, Fluo-4 AM calcium signal, n = 5, read-out: KOR pEC50 (CL95%) (converted)) | KOR α ± SEM (human KOR; [5]) | Ki [2] | Ki [3] | number of writhes (mice [4]) | EC50 (human NK1) | lower potency at NK1 than SP (human NK1; calcium mobilization, CHONK1 cells, from pEC50 values) | NK1 α ± SEM (human NK1; CHONK1 cells, N = 5, SEM) | EC50 (human KOR)
1 | CCCC[C@H](NC(=O)[C@H](CC(C)C)NC(=O)[C@@H](Cc1c[nH]c2ccccc12)NC(=O)[C@H](Cc1ccccc1)NC(=O)[C@@H](Cc1c[nH]c2ccccc12)NC(=O)[C@H](CC(N)=O)NC(=O)[C@@H]1CC(=O)NCCCC[C@@H](NC(=O)[C@@H](N)Cc2ccc(O)cc2)C(=O)N[C@@H](Cc2ccccc2)C(=O)N[C@@H](Cc2ccccc2)C(=O)N1)C(N)=O [compound 2, Tyr-[D-Lys-Phe-Phe-Asp]-Asn-D-Trp-Phe-D-Trp-Leu-Nle-NH2] (H-Y[dK]FFDN[dW]F[dW]L[Nle]-NH2; lactam 2-5) | Inactive | Inactive | did not cause tolerance development | 9.77 nM | 0.99 ± 0.05 | 7.46 ± 0.6 nM | 202 ± 2.5 nM | 12.4 |  |  |  | 
2 | CSCC[C@H](NC(=O)[C@H](CC(C)C)NC(=O)CNC(=O)[C@H](Cc1ccccc1)NC(=O)[C@H](Cc1ccccc1)NC(=O)[C@H](CCC(N)=O)NC(=O)[C@@H]1CC(=O)NCCCC[C@@H](NC(=O)[C@@H](N)Cc2ccc(O)cc2)C(=O)N[C@@H](Cc2ccccc2)C(=O)N[C@@H](Cc2ccccc2)C(=O)N1)C(N)=O [compound 4, Tyr-[D-Lys-Phe-Phe-Asp]-Gln-Phe-Phe-Gly-Leu-Met-NH2] (H-Y[dK]FFDQFFGLM-NH2; lactam 2-5) |  |  | did not cause tolerance development |  | 0.92 ± 0.05 | 10.8 ± 0.85 nM | 225 ± 14 nM | 4.5 | 3.55 nM | fourfold | 0.96 ± 0.05 | 14.1 nM
